Measured values taken from ChEMBL document CHEMBL4613258, “Distribution of Bibenzyls, Prenyl Bibenzyls, Bis-bibenzyls, and Terpenoids in the Liverwort Genus Radula” (J Nat Prod, 2020).
≈ marks a conversion by molar mass, not a printed value. Values belong to the compound of their own block, whether it stands above or below them.

Tests used:
[1] = Inhibition of calmodulin (unknown origin); settings: Homo sapiens
RAW264.7 = experiment: Inhibition of LPS-induced NO-production in mouse RAW264.7 cells at 4.5 to 20 uM incubated for 24 hrs by Griess reagent based assay relative to control; assay type: functional
Candida albicans = experiment: Antifungal activity against Candida albicans; assay type: functional
[2] = tested on: Trichophyton mentagrophytes; experiment: Antifungal activity against Trichophyton mentagrophytes; assay type: functional
[3] = tested on: Trichostrongylus colubriformis; experiment: Antiparasitic activity against Trichostrongylus colubriformis; assay type: functional, organism-based
Cyclooxygenase = Cyclooxygenase (Homo sapiens, UniProt P35354+P23219); experiment: Inhibition of COX (unknown origin); assay type: protein assay
Macrophage = experiment: Inhibition of superoxide anion radical release in guinea pig macrophages; assay type: functional, cell-based; settings: Cavia porcellus
[4] = Antioxidant activity assessed as DPPH radical scavenging activity at 50 ug/ml relative to control; assay type: functional
Staphylococcus aureus = experiment: […] activity against Staphylococcus aureus; assay type: functional
[5] = target: Vasopressin V1a receptor (Homo sapiens) (UniProt P37288); experiment: Antagonist activity at vasopressin (unknown origin)
KB = experiment: Cytotoxicity against human KB cells; assay type: functional; settings: read-out: ED50 (the source's name)
MRC5 = experiment: Cytotoxicity against human MRC5 cells; assay type: functional, cell-based
NCI-H1299 = experiment: Cytotoxicity against human NCI-H1299 cells; assay type: functional, cell-based
[6] = tested on: Trichostrongylus colubriformis; experiment: Antiparasitic activity against Trichostrongylus colubriformis assessed as inhibiton of parasite growth at 0.7 ug/ml relative to control; assay type: functional
[7] = Inhibition of DNA polymerase beta (unknown origin); design: species or system Homo sapiens

Chain of Vasopressin V1a receptor (Homo sapiens) (P37288 whole entry, looked up): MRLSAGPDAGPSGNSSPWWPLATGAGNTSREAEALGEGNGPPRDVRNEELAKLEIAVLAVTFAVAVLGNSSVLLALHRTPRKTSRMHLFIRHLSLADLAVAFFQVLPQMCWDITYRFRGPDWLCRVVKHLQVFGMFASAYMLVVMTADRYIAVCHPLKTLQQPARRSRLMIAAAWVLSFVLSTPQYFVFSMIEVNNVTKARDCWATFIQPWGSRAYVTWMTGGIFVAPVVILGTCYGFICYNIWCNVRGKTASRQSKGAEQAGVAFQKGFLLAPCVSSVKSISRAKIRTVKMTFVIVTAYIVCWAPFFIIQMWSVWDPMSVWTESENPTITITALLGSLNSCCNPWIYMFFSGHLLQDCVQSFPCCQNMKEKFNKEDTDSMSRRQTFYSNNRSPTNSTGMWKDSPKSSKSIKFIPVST

- ID50 [1]: 95 µg/mL (≈ 339 µM)
SMILES: CC1=CCc2c(O)cc(CCc3ccccc3)cc2OC1
- inhibition (INH) (RAW264.7): 50%

- MIC (Candida albicans): 125 µg/mL (≈ 548 µM)
- MIC [2]: 62.5 µg/mL (≈ 274 µM)
- IC50 [3]: 0.13 µg/mL (≈ 0.569 µM)
SMILES: COc1cccc(CCc2ccc(O)cc2)c1

- ID50 [1]: 18.5 µg/mL (≈ 54.4 µM)
SMILES: CC1=CCc2c(cc(CCc3ccc(O)cc3)c(C(=O)O)c2O)OC1

SMILES: C[C@]12COc3cc(CCc4ccccc4)c(C(=O)O)c(O)c3[C@H]1C2
- IC50 (Cyclooxygenase): 39.7 µM
- inhibition (INH) (RAW264.7): 50%
- IC50 (Macrophage): 6 µg/mL (≈ 18.5 µM)

- ID50 [1]: 4.9 µg/mL (≈ 17.4 µM)
SMILES: CC(C)=CCc1c(O)cc(O)cc1CCc1ccccc1
- Activity [4]: 28%

- MIC (Staphylococcus aureus): 3 µg/mL (≈ 10.1 µM)
- ID50 [5]: 27 µg/mL (≈ 91.1 µM)
SMILES: COc1cc(CCc2ccccc2)cc(O)c1CC=C(C)C

SMILES: Oc1cccc(CCc2ccc(Oc3cc(CCc4cccc(O)c4)ccc3O)cc2)c1
- EC50 (KB): 12.5 µg/mL (≈ 29.3 µM)
- IC50 (MRC5): 7.46 µg/mL (≈ 17.5 µM)

SMILES: COC(=O)c1c(CCc2ccccc2)cc(O)c(CC=C(C)C)c1O
- IC50 (NCI-H1299): 5.1 µM

SMILES: COc1ccc(CCc2cccc(OC)c2)cc1
- inhibition at 0.7 µg/mL [6]: 30%

- ID50 [1]: 3.5 µg/mL (≈ 11.7 µM)
SMILES: CC(C)=CCc1c(CCc2ccccc2)cc(O)c(O)c1O

- MIC (Staphylococcus aureus): 20 µg/mL (≈ 57.1 µM)
- ID50 [1]: 4 µg/mL (≈ 11.4 µM)
SMILES: CC(C)=CCC/C(C)=C/Cc1c(O)cc(O)cc1CCc1ccccc1
- inhibition (INH) (RAW264.7): 50%

- ID50 [1]: 2 µg/mL (≈ 6.75 µM)
SMILES: C=C(C)[C@H]1Cc2c(CCc3ccccc3)cc(O)c(O)c2O1

- IC50 [7]: 97.5 to 114 µM
SMILES: Oc1cccc(CCc2ccc(Oc3cc(CCc4cccc(O)c4)cc(O)c3O)cc2)c1 [PERROTETTIN F]
- EC50 (KB): 20 µg/mL (≈ 45.2 µM)

SMILES: CC1=CCc2c(O)cc(CCc3ccccc3O)cc2OC1
- inhibition (INH) (RAW264.7): 50%
